Columns and labels:
exon 45 = settings: RMS cells, 24 hr incubation; for Exon Skipping Efficacy (%) with 5 μM AC: 5 μM AC with Endo-Porter; for Exon Skipping Efficacy (%) with 10 μM AC: 10 μM AC with Endo-Porter
Procedure: Cell Culture and Treatment: This study eruploys human rhabdomyosarcorna cells (RMS cells, ATCC CRL-2061. RMS cells were cultured in T75 flasks in RP 11640 (ATCC) medium with addition of 10% FBS (VWR) and Ix Penicillin-Streptormycin (VWR) under conditions of 37° C. and 5% CO2. 1×10^5 RMS cells were seeded per well in RPMII 640 full medium in 24-well plates for overnight. The next day the culture medium was replaced with 1 mL. fresh medium 5 μM or 10 μM of an AC from Table 8 was added to the cell culture and swirled to mix. Subsequently, 6 μL of Endo-Porter (Gene-tools) was added to the cell culture per well (1 mL of culture medium) and immediately swirled to mix. […] The cells were allowed to stand at room temperature for 5 minutes for cell lysis and pipetted a few times for a thorough mix. The lysates were collected in the Sample Tube RB (QIAGEN).
RNA Extraction: The RNA was extracted using QIAcube following the protocol from the manufacture. The concentration of the total RNA was determined using a NanoDrop 8000 (Thermo Fisher Scientific).
Nested PCR: Nested PCR was performed with 200 ng of the extracted total RNA and QIAGEN OneStep RT-PCR Kits for the primary amplification. A reaction solution of 50 μL was prepared following manufacture's protocol with DMD specific primers
The RT-PCR program used is as follows:
The secondary amplification PCR reaction was prepared using OneTaq® Hot Start 2X Master Mix following manufacture's protocol
Gel Electrophoresis Analysis for Exon Skipping Efficiency: 4 μL of the PCR product above was analyzed by 2% E-gel (Invitrogen′™) and imaged with E-Gel™ Power Snap Electrophoresis System (Thermo Fisher Scientific). The intensities of the skipped and full-length bands were analyzed. The polynucleotide level “A” of the band with exon 45 skipping and the polynucleotide level “B” of the band without exon 45 skipping were measured using ImageJ. 181 Based on these measurement values of “A” and “B”, the skipping efficiency was determined by the following equation: Skipping efficiency (%)=A/(A+B)'100.

D2/MDX mice [1] = settings: Q2W IV; at 12 weeks vs pre-dose
Procedure: Grip strength was measured at pre-dose (FIG. 11A) and at 12 weeks (FIG. 11B).

D2/MDX mice [2] = settings: Q2W IV; 4, 8 and 12 weeks post-treatment
Procedure: Serum CK was determined at 4 time points: pre-dose, and at 4, 8 and 12 weeks.

D2/MDX mice [3] = settings: PMO only, Q2W IV; 2 to 12 weeks

Substance | Exon Skipping Efficacy (%) with 5 μM AC (exon 45) | Exon Skipping Efficacy (%) with 10 μM AC (exon 45) | Grip strength (D2/MDX mice [1]) | Serum CK (D2/MDX mice [2]) | Wire hang time, PMO treatment alone (D2/MDX mice [3])
5′-AATGCCATCCTGGAGTTCCTG-3′ [D45-21mer-n3] | 41.8% | 52.7% | – | – | –
5′-ATGCCATCCTGGAGTTCCTGT-3′ [D45-21mer-n4] | 42.6% | 52.0% | – | – | –
5′-ATGCCATCCTGGAGTTCCTGTA-3′ [D45-22mer-n5] | 36.8% | 50.9% | – | – | –
5′-CAATGCCATCCTGGAGTTCCTGT-3′ [D45-23mer-n4] | 35.3% | 45.3% | – | – | –
5′-CCCAATGCCATCCTGGAGTTCC-3′ [D45-22mer-n1] | 45.1% | 62.3% | – | – | –
5′-CCCAATGCCATCCTGGAGTTCCT-3′ [D45-23mer-n2] | 46.4% | 58.2% | – | – | –
5′-CCCAATGCCATCCTGGAGTTCCTG-3′ [D45-24mer-n3] | 44.2% | 52.3% | – | – | –
5′-CCCAATGCCATCCTGGAGTTCCTGT-3′ [D45-25mer-n4] | 37.6% | 42.6% | – | – | –
5′-CCGCTGCCCAATGCCATCCTG-3′ [D45-21mer-6] | 45.9% | 59.5% | – | – | –
5′-CCGCTGCCCAATGCCATCCTGGAG-3′ [D45-24mer-3] | 37.2% | 40.8% | – | – | –
5′-GCCCAATGCCATCCTGGAGTTCC-3′ [D45-23mer-n1] | 39.6% | 54.4% | – | – | –
5′-GGCCAAACCTCGGCTTACCTGAAAT-3′ [PMO-MDX23] | – | – | no significant improvement | no significant decrease | following the same trends as the vehicle D2.mdx group
5′-TGCCCAATGCCATCCTGGAGTTCCT-3′ [D45-25mer-n2] | 44.0% | 48.8% | – | – | –

— patent US20240417429A1, “COMPOSITIONS AND METHODS FOR SKIPPING EXON 45 IN DUCHENNE MUSCULAR DYSTROPHY” (Entrada Therapeutics, Inc., priority 2021, published 2024)
